Test results taken from US10131652B2, “Pyrimidinyloxy benzene derivatives as herbicides” (E. I. DU PONT DE NEMOURS AND COMPANY, priority 2014, dated 2018).

Assays:
Format in all cases: in vivo
[1] = tested on: velvetleaf (Abutilon theophrasti); experiment: Test B pre-/postemergence plant response
Procedure, shortened: (§1)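 Visual injury scores on a 0–100 scale (100 = complete control) relative to untreated plants, taken about 10 days post-treatment in greenhouse. Treatments were a directed preemergence soil spray and a postemergence spray at one- to two-leaf stage, using surfactant-containing solvent formulation.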

[2] = tested on: barnyardgrass (Echinochloa crus-galli); experiment: Test B pre-/postemergence plant response
Procedure, shortened: as §1

[3] = tested on: large (Lg) crabgrass (Digitaria sanguinalis); experiment: Test B pre-/postemergence plant response
Procedure, shortened: as §1

corn (Zea mays) = experiment: Test B pre-/postemergence plant response
Procedure, shortened: as §1

[4] = tested on: pigweed (Amaranthus retroflexus); experiment: Test B pre-/postemergence plant response
Procedure, shortened: as §1

[5] = tested on: giant foxtail (Setaria faberii); experiment: Test B pre-/postemergence plant response
Procedure, shortened: as §1

[6] = tested on: morningglory (Ipomoea spp.); experiment: Test B pre-/postemergence plant response
Procedure, shortened: as §1

[7] = tested on: wheat (Triticum aestivum); experiment: Test B pre-/postemergence plant response
Procedure, shortened: as §1

[8] = tested on: barnyardgrass (Echinochloa crus-galli); experiment: Test C flooded paddy test plant response; conditions: Flood, 250 g ai/ha; scale of 0 to 100 where 0 is no effect and 100 is complete control; 13 to 15 days
Procedure, shortened: (§2)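 Plants grown to the 2-leaf stage; pots flooded to 3 cm above soil, test compounds applied directly to paddy water, depth maintained throughout. Greenhouse for 13 to 15 days, then visual rating versus controls on a 0–100 scale (0 no effect, 100 complete control).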

rice (Oryza sativa) = experiment: Test C flooded paddy test plant response; conditions: Flood, 250 g ai/ha; scale of 0 to 100 where 0 is no effect and 100 is complete control; 13 to 15 days
Procedure, shortened: as §2

[9] = tested on: small-flower umbrella sedge (Cyperus difformis); experiment: Test C flooded paddy test plant response; conditions: Flood, 250 g ai/ha; scale of 0 to 100 where 0 is no effect and 100 is complete control; 13 to 15 days
Procedure, shortened: as §2

[10] = tested on: ducksalad (Heteranthera limosa); experiment: Test C flooded paddy test plant response; conditions: Flood, 250 g ai/ha; scale of 0 to 100 where 0 is no effect and 100 is complete control; 13 to 15 days
Procedure, shortened: as §2

[11] = 125 g ai/ha, postemergence, 0 to 100 scale, 0 no effect, 100 complete control
[12] = Postemergence, 500 g ai/ha, 0 to 100 scale (0 no effect, 100 complete control)
[13] = Preemergence, 125 g ai/ha, 0 to 100 scale where 0 is no effect and 100 is complete control
[14] = Preemergence, 500 g ai/ha, 0 to 100 scale (0 no effect, 100 complete control)
[15] = Preemergence, 500 g ai/ha, 0 to 100 scale where 0 is no effect and 100 is complete control
[16] = Preemergence, 125 g ai/ha, 0 to 100 scale (0 no effect, 100 complete control)
[17] = 500 g ai/ha, postemergence, 0 to 100 scale, 0 no effect, 100 complete control

FC(F)(F)c1nccc(-c2ccccc2Oc2ncc(Cl)cn2)n1 [Compound 20]
Plant response rating, Velvetleaf [1, 11]: 0
Plant response rating, Velvetleaf [1, 12]: 30
Plant response rating, Velvetleaf [1, 13]: 0
Plant response rating, Velvetleaf [1, 14]: 20
Plant response rating, Barnyardgrass [2, 11]: 0
Plant response rating, Barnyardgrass [2, 12]: 0
Plant response rating, Barnyardgrass [2, 13]: 0
Plant response rating, Barnyardgrass [2, 14]: 0
Plant response rating, Crabgrass, Large [3, 11]: 0
Plant response rating, Crabgrass, Large [3, 12]: 20
Plant response rating, Crabgrass, Large [3, 13]: 10
Plant response rating, Crabgrass, Large [3, 14]: 70
Plant response rating, Corn (corn (Zea mays); [11]): 0
Plant response rating, Corn (corn (Zea mays); [12]): 0
Plant response rating, Corn (corn (Zea mays); [13]): 0
Plant response rating, Corn (corn (Zea mays); [14]): 0
Plant response rating, Pigweed [4, 11]: 40
Plant response rating, Pigweed [4, 12]: 90
Plant response rating, Pigweed [4, 13]: 0
Plant response rating, Pigweed [4, 14]: 20
Plant response rating, Foxtail, Giant [5, 11]: 0
Plant response rating, Foxtail, Giant [5, 12]: 20
Plant response rating, Foxtail, Giant [5, 13]: 10
Plant response rating, Foxtail, Giant [5, 14]: 60
Plant response rating, Morningglory [6, 11]: 0
Plant response rating, Morningglory [6, 12]: 50
Plant response rating, Morningglory [6, 13]: 0
Plant response rating, Morningglory [6, 14]: 0
Plant response rating, Wheat [7, 11]: 0
Plant response rating, Wheat [7, 12]: 0
Plant response rating, Wheat [7, 13]: 0
Plant response rating, Wheat [7, 14]: 0
Barnyardgrass plant response rating [8]: 0
Rice plant response rating (rice (Oryza sativa)): 0
Sedge, Umbrella plant response rating [9]: 0
Ducksalad plant response rating [10]: 0

Clc1cnc(Oc2ccccc2-c2cc(Cl)cc(Cl)c2)nc1 [Compound 41]
Plant response rating, Velvetleaf [1, 11]: 10
Plant response rating, Velvetleaf [1, 12]: 30
Plant response rating, Velvetleaf [1, 13]: 0
Plant response rating, Velvetleaf [1, 15]: 0
Plant response rating, Barnyardgrass [2, 11]: 0
Plant response rating, Barnyardgrass [2, 12]: 20
Plant response rating, Barnyardgrass [2, 13]: 0
Plant response rating, Barnyardgrass [2, 15]: 0
Plant response rating, Crabgrass, Large [3, 11]: 10
Plant response rating, Crabgrass, Large [3, 12]: 20
Plant response rating, Crabgrass, Large [3, 13]: 0
Plant response rating, Crabgrass, Large [3, 15]: 10
Plant response rating, Corn (corn (Zea mays); [11]): 0
Plant response rating, Corn (corn (Zea mays); [12]): 10
Plant response rating, Corn (corn (Zea mays); [13]): 0
Plant response rating, Corn (corn (Zea mays); [15]): 0
Plant response rating, Pigweed [4, 11]: 40
Plant response rating, Pigweed [4, 12]: 70
Plant response rating, Pigweed [4, 13]: 0
Plant response rating, Pigweed [4, 15]: 0
Plant response rating, Foxtail, Giant [5, 11]: 10
Plant response rating, Foxtail, Giant [5, 12]: 20
Plant response rating, Foxtail, Giant [5, 13]: 0
Plant response rating, Foxtail, Giant [5, 15]: 20
Plant response rating, Morningglory [6, 11]: 0
Plant response rating, Morningglory [6, 12]: 10
Plant response rating, Morningglory [6, 13]: 0
Plant response rating, Morningglory [6, 15]: 0
Plant response rating, Wheat [7, 11]: 0
Plant response rating, Wheat [7, 12]: 0
Plant response rating, Wheat [7, 13]: 0
Plant response rating, Wheat [7, 15]: 0
Barnyardgrass plant response rating [8]: 0
Rice plant response rating (rice (Oryza sativa)): 0
Sedge, Umbrella plant response rating [9]: 0
Ducksalad plant response rating [10]: 0

Cc1noc(C)c1-c1c(C#N)cccc1Oc1ncc(Cl)cn1 [Compound 134]
Plant response rating, Velvetleaf [1, 11]: 40
Plant response rating, Velvetleaf [1, 12]: 90
Velvetleaf plant response rating [1, 16]: 40
Plant response rating, Velvetleaf [1, 15]: 100
Plant response rating, Barnyardgrass [2, 11]: 20
Plant response rating, Barnyardgrass [2, 12]: 90
Barnyardgrass plant response rating [2, 16]: 70
Plant response rating, Barnyardgrass [2, 15]: 90
Plant response rating, Crabgrass, Large [3, 11]: 10
Plant response rating, Crabgrass, Large [3, 12]: 100
Crabgrass, Large plant response rating [3, 16]: 100
Plant response rating, Crabgrass, Large [3, 15]: 100
Plant response rating, Corn (corn (Zea mays); [11]): 10
Plant response rating, Corn (corn (Zea mays); [12]): 80
Corn plant response rating (corn (Zea mays); [16]): 20
Plant response rating, Corn (corn (Zea mays); [15]): 60
Plant response rating, Pigweed [4, 11]: 60
Plant response rating, Pigweed [4, 12]: 100
Pigweed plant response rating [4, 16]: 100
Plant response rating, Pigweed [4, 15]: 100
Plant response rating, Foxtail, Giant [5, 11]: 10
Plant response rating, Foxtail, Giant [5, 12]: 90
Foxtail, Giant plant response rating [5, 16]: 90
Plant response rating, Foxtail, Giant [5, 15]: 100
Plant response rating, Morningglory [6, 11]: 10
Plant response rating, Morningglory [6, 12]: 90
Morningglory plant response rating [6, 16]: 10
Plant response rating, Morningglory [6, 15]: 80
Plant response rating, Wheat [7, 11]: 10
Plant response rating, Wheat [7, 12]: 30
Wheat plant response rating [7, 16]: 20
Plant response rating, Wheat [7, 15]: 20
Barnyardgrass plant response rating [8]: 0
Rice plant response rating (rice (Oryza sativa)): 0
Sedge, Umbrella plant response rating [9]: 75
Ducksalad plant response rating [10]: 40

N#Cc1cccc(Oc2ncc(Br)cn2)c1-c1ccc(Cl)cn1 [Compound 204]
Plant response rating, Velvetleaf [1, 11]: 0
Plant response rating, Velvetleaf [1, 17]: 10
Velvetleaf plant response rating [1, 16]: 0
Plant response rating, Velvetleaf [1, 15]: 60
Plant response rating, Barnyardgrass [2, 11]: 0
Plant response rating, Barnyardgrass [2, 17]: 10
Barnyardgrass plant response rating [2, 16]: 0
Plant response rating, Barnyardgrass [2, 15]: 30
Plant response rating, Crabgrass, Large [3, 11]: 10
Plant response rating, Crabgrass, Large [3, 17]: 40
Crabgrass, Large plant response rating [3, 16]: 90
Plant response rating, Crabgrass, Large [3, 15]: 100
Plant response rating, Corn (corn (Zea mays); [11]): 0
Plant response rating, Corn (corn (Zea mays); [17]): 0
Corn plant response rating (corn (Zea mays); [16]): 0
Plant response rating, Corn (corn (Zea mays); [15]): 0
Plant response rating, Pigweed [4, 11]: 50
Plant response rating, Pigweed [4, 17]: 90
Pigweed plant response rating [4, 16]: 100
Plant response rating, Pigweed [4, 15]: 100
Plant response rating, Foxtail, Giant [5, 11]: 0
Plant response rating, Foxtail, Giant [5, 17]: 30
Foxtail, Giant plant response rating [5, 16]: 60
Plant response rating, Foxtail, Giant [5, 15]: 100
Plant response rating, Morningglory [6, 11]: 0
Plant response rating, Morningglory [6, 17]: 10
Morningglory plant response rating [6, 16]: 0
Plant response rating, Morningglory [6, 15]: 10
Plant response rating, Wheat [7, 11]: 0
Plant response rating, Wheat [7, 17]: 0
Wheat plant response rating [7, 16]: 0
Plant response rating, Wheat [7, 15]: 0
Barnyardgrass plant response rating [8]: 0
Rice plant response rating (rice (Oryza sativa)): 0
Sedge, Umbrella plant response rating [9]: 0
Ducksalad plant response rating [10]: 0
